These results are taken from patent US20220177508A1, “C10-Cyclic Substituted 13-Membered Macrolides and Uses Thereof” (Zikani Therapeutics, Inc., priority 2018, published 2022).

Converted amounts (≈) assume the structure as drawn.

Holding throughout (format): cell-based
In one assay the test system is S. aureus MP-12. The assay can be described thus: Broth dilution MIC determination (CLSI), S. aureus MP-12. The note with it: Staphylococcus aureus, MP12; strain MP-12, broth dilution.
Another assay deals with E. coli MP-4. The assay can be described thus: Broth dilution MIC determination (CLSI), E. coli MP-4. The following applies: Escherichia coli, MP4; strain MP-4, broth dilution; read-out: MIC E. coli MP-4. (Broth dilution looks for growth in wells or tubes with falling amounts of substance.)
The subject of a further assay is K. pneumoniae MP-546. The assay can be described thus: Broth dilution MIC determination (CLSI), K. pneumoniae MP-546. The following applies: Klebsiella pneumoniae, MP546; strain MP-546, broth dilution.
Another assay has as its system P. aeruginosa MP-3. Briefly: Broth dilution MIC determination (CLSI), P. aeruginosa MP-3. The note with it: Pseudomonas aeruginosa, MP3; strain MP-3, broth dilution.
Another assay has as its system A. baumannii MP-15. The assay can be described thus: Broth dilution MIC determination (CLSI), A. baumannii MP-15. The note with it: Acinetobacter baumannii, MP15; strain MP-15, broth dilution; read-out: MIC A. baumanii MP-15.

By MIC is commonly meant the smallest concentration in the dilution series that meets the test's criterion for growth inhibition.

As to `CO[C@]1(C)C[C@@H](C)CN(C)[C@@H](C2CCCCC2)COC(=O)C(C)(C)C(=O)[C@H](C)[C@H]1O[C@@H]1O[C@H](C)C[C@H](N(C)C)[C@H]1O` [Compound 102, (3S,6R,8R,9R,10R)-3-cyclohexyl-9-(((2S,3R,4S,6R)-4-(dimethylamino)-3-hydroxy-6-methyltetrahydro-2H-pyran-2-yl)oxy)-8-methoxy-4,6,8,10,12,12-hexamethyl-1-oxa-4-azacyclotridecane-11,13-dione], the MIC in the assay with S. aureus MP-12, in the assay with E. coli MP-4, against K. pneumoniae MP-546, against P. aeruginosa MP-3 and with A. baumannii MP-15 was more than 32 µg/mL in each case.

On to `CO[C@]1(C)C[C@@H](C)CN(C)[C@H]([C@H]2CCCN(C(C)C)C2)COC(=O)C(C)(C)C(=O)[C@H](C)[C@H]1O[C@@H]1O[C@H](C)C[C@H](N(C)C)[C@H]1O` [Compound 104, (3R,6R,8R,9R,10R)-9-(((2S,3R,4S,6R)-4-(dimethylamino)-3-hydroxy-6-methyltetrahydro-2H-pyran-2-yl)oxy)-3-((S)-1-isopropylpiperidin-3-yl)-8-methoxy-4,6,8,10,12,12-hexamethyl-1-oxa-4-azacyclotridecane-11,13-dione], for which the MIC is 4 to 32 µg/mL (≈ 6.39 to 51.1 µM) in the assay on S. aureus MP-12; less than 4 µg/mL with E. coli MP-4; 4 to 32 µg/mL (≈ 6.39 to 51.1 µM) with K. pneumoniae MP-546; more than 32 µg/mL with P. aeruginosa MP-3; more than 32 µg/mL in the assay on A. baumannii MP-15.

`CCCN1C[C@H](C)C[C@@](C)(OC)[C@H](O[C@@H]2O[C@H](C)C[C@H](N(C)C)[C@H]2O)[C@@H](C)C(=O)C(C)(C)C(=O)OC[C@H]1C1CN(CC(C)C)C1` [Compound 105, (3R,6R,8R,9R,10R)-9-(((2S,3R,4S,6R)-4-(dimethylamino)-3-hydroxy-6-methyltetrahydro-2H-pyran-2-yl)oxy)-3-(1-isobutylazetidin-3-yl)-8-methoxy-6,8,10,12,12-pentamethyl-4-propyl-1-oxa-4-azacyclotridecane-11,13-dione]: the minimal inhibitory concentration (MIC) was more than 32 µg/mL with S. aureus MP-12; 4 to 32 µg/mL (≈ 6.25 to 50 µM) in the assay with E. coli MP-4; more than 32 µg/mL in the assay with K. pneumoniae MP-546; more than 32 µg/mL in the assay with P. aeruginosa MP-3; more than 32 µg/mL in the assay on A. baumannii MP-15.

As for `CO[C@]1(C)C[C@@H](C)CN(C)[C@H]([C@@H]2CCCN2C)COC(=O)C(C)(C)C(=O)[C@H](C)[C@H]1O[C@@H]1O[C@H](C)C[C@H](N(C)C)[C@H]1O` [Compound 106, (3R,6R,8R,9R,10R)-9-(((2S,3R,4S,6R)-4-(dimethylamino)-3-hydroxy-6-methyltetrahydro-2H-pyran-2-yl)oxy)-8-methoxy-4,6,8,10,12,12-hexamethyl-3-((S)-1-methylpyrrolidin-2-yl)-1-oxa-4-azacyclotridecane-11,13-dione], the MIC in the assay on S. aureus MP-12, with E. coli MP-4, with K. pneumoniae MP-546, with P. aeruginosa MP-3 and in the assay with A. baumannii MP-15 was more than 32 µg/mL in each case.

In the case of `CO[C@]1(C)C[C@@H](C)CN(C)[C@H](C2CCN(C(=O)CNCC(C)C)CC2)COC(=O)C(C)C(=O)[C@H](C)[C@H]1O[C@@H]1O[C@H](C)C[C@H](N(C)C)[C@H]1O` (stereo partly drawn) [Compound 107, (3R,6R,8R,9R,10R)-9-(((2S,3R,4S,6R)-4-(dimethylamino)-3-hydroxy-6-methyltetrahydro-2H-pyran-2-yl)oxy)-3-(1-(isobutylglycyl)piperidin-4-yl)-8-methoxy-4,6,8,10,12-pentamethyl-1-oxa-4-azacyclotridecane-11,13-dione], the MIC is more than 32 µg/mL with S. aureus MP-12; 4 to 32 µg/mL (≈ 5.86 to 46.9 µM) in the assay with E. coli MP-4; 4 to 32 µg/mL (≈ 5.86 to 46.9 µM) in the assay with K. pneumoniae MP-546; more than 32 µg/mL against P. aeruginosa MP-3; more than 32 µg/mL with A. baumannii MP-15.

Take `CO[C@]1(C)C[C@@H](C)CN(C)[C@@H]([C@@H]2CCN(C)C2)COC(=O)C(C)(C)C(=O)[C@H](C)[C@H]1O[C@@H]1O[C@H](C)C[C@H](N(C)C)[C@H]1O` [Compound 109, (3S,6R,8R,9R,10R)-9-(((2S,3R,4S,6R)-4-(Dimethylamino)-3-hydroxy-6-methyltetrahydro-2H-pyran-2-yl)oxy)-8-methoxy-4,6,8,10,12,12-hexamethyl-3-((R)-1-methylpyrrolidin-3-yl)-1-oxa-4-azacyclotridecane-11,13-dione]: the minimum inhibitory concentration (MIC) in the assay on S. aureus MP-12 is more than 32 µg/mL; in the assay with E. coli MP-4 it was less than 4 µg/mL; in the assay on K. pneumoniae MP-546, less than 4 µg/mL; with P. aeruginosa MP-3, more than 32 µg/mL; with A. baumannii MP-15, more than 32 µg/mL.

Take `CO[C@]1(C)C[C@@H](C)CN(C)[C@@H]([C@@H]2CCN(CC(C)C)C2)COC(=O)C(C)(C)C(=O)[C@H](C)[C@H]1O[C@@H]1O[C@H](C)C[C@H](N(C)C)[C@H]1O` [Compound 110, (3S,6R,8R,9R,10R)-9-(((2S,3R,4S,6R)-4-(dimethylamino)-3-hydroxy-6-methyltetrahydro-2H-pyran-2-yl)oxy)-3-((R)-1-isobutylpyrrolidin-3-yl)-8-methoxy-4,6,8,10,12,12-hexamethyl-1-oxa-4-azacyclotridecane-11,13-dione]: the minimum inhibitory concentration (MIC) with S. aureus MP-12 is 4 to 32 µg/mL (≈ 6.39 to 51.1 µM); in the assay on E. coli MP-4, less than 4 µg/mL; in the assay on K. pneumoniae MP-546, less than 4 µg/mL; against P. aeruginosa MP-3 it was more than 32 µg/mL; in the assay with A. baumannii MP-15 it was more than 32 µg/mL.

On to `CO[C@]1(C)C[C@@H](C)CN(C)[C@H](C2CN(CC(C)C)C2)COC(=O)C(C)(C)C(=O)[C@H](C)[C@H]1O[C@@H]1O[C@H](C)C[C@H](N(C)C)[C@H]1O` [Compound 112], for which the MIC is 4 to 32 µg/mL (≈ 6.54 to 52.3 µM) in the assay with S. aureus MP-12; less than 4 µg/mL in the assay on E. coli MP-4; less than 4 µg/mL with K. pneumoniae MP-546; more than 32 µg/mL in the assay with P. aeruginosa MP-3; 4 to 32 µg/mL (≈ 6.54 to 52.3 µM) in the assay on A. baumannii MP-15.

As for `CO[C@]1(C)C[C@@H](C)CN(C)[C@H]([C@@H]2CCCN(C)C2)COC(=O)C(C)(C)C(=O)[C@H](C)[C@H]1O[C@@H]1O[C@H](C)C[C@H](N(C)C)[C@H]1O` [Compound 113, (3R,6R,8R,9R,10R)-9-(((2S,3R,4S,6R)-4-(dimethylamino)-3-hydroxy-6-methyltetrahydro-2H-pyran-2-yl)oxy)-8-methoxy-4,6,8,10,12,12-hexamethyl-3-((R)-1-methylpiperidin-3-yl)-1-oxa-4-azacyclotridecane-11,13-dione], the minimum inhibitory concentration (MIC) was more than 32 µg/mL with S. aureus MP-12; 4 to 32 µg/mL (≈ 6.69 to 53.5 µM) in the assay with E. coli MP-4; more than 32 µg/mL against K. pneumoniae MP-546; more than 32 µg/mL against P. aeruginosa MP-3; more than 32 µg/mL in the assay on A. baumannii MP-15.

`CO[C@]1(C)C[C@@H](C)CN(C)[C@@H](C2CCN(C(C)C)CC2)COC(=O)C(C)(C)C(=O)[C@H](C)[C@H]1O[C@@H]1O[C@H](C)C[C@H](N(C)C)[C@H]1O` [Compound 116, (3S,6R,8R,9R,10R)-9-(((2S,3R,4S,6R)-4-(dimethylamino)-3-hydroxy-6-methyltetrahydro-2H-pyran-2-yl)oxy)-3-(1-isopropylpiperidin-4-yl)-8-methoxy-4,6,8,10,12,12-hexamethyl-1-oxa-4-azacyclotridecane-11,13-dione]: the MIC is 4 to 32 µg/mL (≈ 6.39 to 51.1 µM) in the assay with S. aureus MP-12; less than 4 µg/mL in the assay on E. coli MP-4; less than 4 µg/mL against K. pneumoniae MP-546; more than 32 µg/mL against P. aeruginosa MP-3; more than 32 µg/mL with A. baumannii MP-15.

Consider `CCN1CCC[C@@H]([C@@H]2COC(=O)C(C)(C)C(=O)[C@H](C)[C@@H](O[C@@H]3O[C@H](C)C[C@H](N(C)C)[C@H]3O)[C@](C)(OC)C[C@@H](C)CN2C)C1` [Compound 117, (3R,6R,8R,9R,10R)-9-(((2S,3R,4S,6R)-4-(dimethylamino)-3-hydroxy-6-methyltetrahydro-2H-pyran-2-yl)oxy)-3-((R)-1-ethylpiperidin-3-yl)-8-methoxy-4,6,8,10,12,12-hexamethyl-1-oxa-4-azacyclotridecane-11,13-dione], for which the MIC was more than 32 µg/mL against S. aureus MP-12; 4 to 32 µg/mL (≈ 6.54 to 52.3 µM) in the assay on E. coli MP-4; 4 to 32 µg/mL (≈ 6.54 to 52.3 µM) with K. pneumoniae MP-546; more than 32 µg/mL in the assay on P. aeruginosa MP-3; more than 32 µg/mL with A. baumannii MP-15.
